Results published in patent US20230017045A1, “PYRIDINE AND PYRIMIDINE CARBOXYLATE HERBICIDES AND METHODS OF USE THEREOF” (Dow AgroSciences LLC, priority 2017, published 2023).
Where two headings read alike, the source gives them in different places.

Tested on: test plant species
Assay: Post-emergent herbicidal activity test (greenhouse, foliar spray, visual growth reduction)
Assay type: in vivo
Details: post-emergence, 336 h, 140 g ai/ha
Summary of the method: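 Visual scoring 14 d after treatment (0 = no injury, 100 = complete control) against nontreated and solvent-blank plants gave percent growth reduction. Foliar application used a track sprayer delivering 187 L/ha to seedlings at first or second true leaf stage, grown at 23–29 °C day, ~15 h photoperiod.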

[1] = ECHCG: barnyardgrass (Echinochloa crus-galli), 14 days after application, read-out: Visual Growth Reduction (%) 14 Days After Application, ECHCG
[2] = IPOHE: ivy-leaf morning glory (Ipomoea hederacea), 14 days after application, read-out: Visual Growth Reduction (%) 14 Days After Application, IPOHE
[3] = KCHSC: kochia (Bassia scoparia), 14 days after application, read-out: Visual Growth Reduction (%) 14 Days After Application, KCHSC
[4] = ORYSA: rice (Oryza sativa), 14 days after application, read-out: Visual Growth Reduction (%) 14 Days After Application, ORYSA
[5] = SETFA: giant foxtail (Setaria faberi), 14 days after application, read-out: Visual Growth Reduction (%) 14 Days After Application, SETFA
[6] = SORVU: grain sorghum (Sorghum vulgare), 14 days after application, read-out: Visual Growth Reduction (%) 14 Days After Application, SORVU
[7] = STEME: common chickweed (Stellaria media), 14 days after application, read-out: Visual Growth Reduction (%) 14 Days After Application, STEME
[8] = TRZAS: wheat, spring (Triticum aestivum), 14 days after application, read-out: Visual Growth Reduction (%) 14 Days After Application, TRZAS
[9] = blackgrass (Alopecurus myosuroides), 14 Days After Application, read-out: Visual Growth Reduction (%) ALOMY
[10] = canada thistle (Cirsium arvense), 14 Days After Application, read-out: Visual Growth Reduction (%) CIRAR
[11] = crabgrass (Digitaria sanguinalis), 14 Days After Application, read-out: Visual Growth Reduction (%) DIGSA
[12] = lambsquarters (Chenopodium album), 14 Days After Application, read-out: Visual Growth Reduction (%) CHEAL
[13] = redroot pigweed (Amaranthus retroflexus), 14 Days After Application, read-out: Visual Growth Reduction (%) AMARE
[14] = wild oat (Avena fatua), 14 Days After Application, read-out: Visual Growth Reduction (%) AVEFA
[15] = yellow nutsedge (Cyperus esculentus), 14 Days After Application, read-out: Visual Growth Reduction (%) CYPES
[16] = ALOMY: blackgrass (Alopecurus myosuroides), 14 days after application, read-out: Visual Growth Reduction (%) 14 Days After Application, ALOMY
[17] = AMARE: redroot pigweed (Amaranthus retroflexus), 14 days after application, read-out: Visual Growth Reduction (%) 14 Days After Application, AMARE
[18] = AVEFA: wild oat (Avena fatua), 14 days after application, read-out: Visual Growth Reduction (%) 14 Days After Application, AVEFA
[19] = CHEAL: lambsquarters (Chenopodium album), 14 days after application, read-out: Visual Growth Reduction (%) 14 Days After Application, CHEAL
[20] = CIRAR: canada thistle (Cirsium arvense), 14 days after application, read-out: Visual Growth Reduction (%) 14 Days After Application, CIRAR
[21] = CYPES: yellow nutsedge (Cyperus esculentus), 14 days after application, read-out: Visual Growth Reduction (%) 14 Days After Application, CYPES
[22] = DIGSA: crabgrass (Digitaria sanguinalis), 14 days after application, read-out: Visual Growth Reduction (%) 14 Days After Application, DIGSA

SMILES | pest or weed control at 140 g/ha [1] | pest or weed control at 140 g/ha [2] | pest or weed control at 140 g/ha [3] | pest or weed control at 140 g/ha [4] | pest or weed control at 140 g/ha [5] | pest or weed control at 140 g/ha [6] | pest or weed control at 140 g/ha [7] | pest or weed control at 140 g/ha [8] | pest or weed control at 140 g/ha [9] | pest or weed control at 140 g/ha [10] | pest or weed control at 140 g/ha [11] | pest or weed control at 140 g/ha [12] | pest or weed control at 140 g/ha [13] | pest or weed control at 140 g/ha [16] | pest or weed control at 140 g/ha [17] | pest or weed control at 140 g/ha [18] | pest or weed control at 140 g/ha [19] | pest or weed control at 140 g/ha [20] | pest or weed control at 140 g/ha [21] | pest or weed control at 140 g/ha [22] | other results
COC(=O)c1nc(-c2cc(F)c(C(F)(F)F)cc2F)ccc1Cl [F323, Methyl 3-chloro-6-(2,5-difluoro-4-(trifluoromethyl)phenyl)picolinate] | 0 to 29% | 95 to 100% | 30 to 44% | 0 to 29% | 30 to 44% | 85 to 94% | 0 to 29% | 0 to 29% | 0 to 29% | 45 to 59% | 75 to 84% | 85 to 94% | 75 to 84% | – | – | – | – | – | – | – | pest or weed control at 140 g/ha [14]: 0 to 29%; pest or weed control at 140 g/ha [15]: 45 to 59%
O=C(O)c1nc(-c2ccc(OC(F)(F)F)cc2Cl)ccc1Cl [F226, 3-Chloro-6-(2-chloro-4-4-(trifluoromethoxy)phenyl)picolinic acid] | 60 to 74% | 95 to 100% | 60 to 74% | 0 to 29% | 85 to 94% | 85 to 94% | 0 to 29% | 45 to 59% | 45 to 59% | 85 to 94% | 95 to 100% | 95 to 100% | 60 to 74% | – | – | – | – | – | – | – | pest or weed control at 140 g/ha [14]: 45 to 59%; pest or weed control at 140 g/ha [15]: 0 to 29%
COC(=O)c1nc(-c2ccc(Cl)c(N(C)C)c2)ccc1Cl [F149, Methyl 3-chloro-6-(4-chloro-3-(dimethylamino)phenyl)picolinate] | 0 to 29% | 30 to 44% | 75 to 84% | 0 to 29% | 0 to 29% | 0 to 29% | 0 to 29% | 0 to 29% | – | – | – | – | – | 0 to 29% | 75 to 84% | 0 to 29% | 95 to 100% | 60 to 74% | 0 to 29% | 0 to 29% | –
COc1c(Cl)ccc(-c2ccc(Cl)c(C(=O)OCc3ccccc3)n2)c1F [F299, Benzyl 3-chloro-6-(4-chloro-2-fluoro-3-methoxyphenyl) picolinate] | 0 to 29% | 60 to 74% | 75 to 84% | 0 to 29% | 0 to 29% | 0 to 29% | 60 to 74% | 0 to 29% | 0 to 29% | 75 to 84% | 0 to 29% | 75 to 84% | 60 to 74% | – | – | – | – | – | – | – | pest or weed control at 140 g/ha [14]: 0 to 29%; pest or weed control at 140 g/ha [15]: 75 to 84%
COC(=O)c1nc(-c2ccc(OC(F)F)cc2F)c(F)cc1Cl [F221, Methyl 3-chloro-6-(4-(difluoromethoxy)-2-fluorophenyl)-5-fluoropicolinate] | 85 to 94% | 95 to 100% | 85 to 94% | 0 to 29% | 85 to 94% | 95 to 100% | 0 to 29% | 75 to 84% | 75 to 84% | 95 to 100% | 95 to 100% | 95 to 100% | 95 to 100% | – | – | – | – | – | – | – | pest or weed control at 140 g/ha [14]: 75 to 84%; pest or weed control at 140 g/ha [15]: 75 to 84%
COC(=O)c1nc(-c2ccc(I)cc2)c(F)cc1Cl [F100, Methyl 3-chloro-5-fluoro-6-(4-iodophenyl) picolinate] | 0 to 29% | 30 to 44% | 0 to 29% | 0 to 29% | 0 to 29% | 30 to 44% | 0 to 29% | 0 to 29% | – | – | – | – | – | 0 to 29% | 0 to 29% | 0 to 29% | 0 to 29% | 45 to 59% | 30 to 44% | 0 to 29% | –
COC(=O)c1nc(-c2cc3c(cc2Cl)OC(F)(F)O3)c(F)cc1Cl [F153, Methyl 3-chloro-6-(6-chloro-2,2-difluorobenzo[d] [1,3]dioxol-5-yl)-5-fluoropicolinate] | 75 to 84% | 95 to 100% | 85 to 94% | 0 to 29% | 85 to 94% | 95 to 100% | 0 to 29% | 30 to 44% | – | – | – | – | – | 60 to 74% | 95 to 100% | 60 to 74% | 85 to 94% | 85 to 94% | 0 to 29% | 85 to 94% | –
COC(=O)c1nc(-c2c(Cl)cc(C(F)(F)F)cc2[S+](C)[O-])ccc1Cl (stereo not drawn) [F120, methyl 3-chloro-6-(2-chloro-6-(methylsulfinyl)-4-(trifluoromethyl)phenyl)picolinate] | 0 to 29% | 30 to 44% | 60 to 74% | 0 to 29% | 0 to 29% | 0 to 29% | 0 to 29% | 0 to 29% | – | – | – | – | – | 0 to 29% | 45 to 59% | 0 to 29% | 30 to 44% | 60 to 74% | 0 to 29% | 0 to 29% | –
COC(=O)c1nc(-c2ccc(SC(F)(F)F)cc2)c(Cl)cc1Cl [F98, Methyl 3,5-dichloro-6-(4-((trifluoromethyl)thio)phenyl)picolinate] | 0 to 29% | 0 to 29% | 0 to 29% | 0 to 29% | 0 to 29% | 0 to 29% | 0 to 29% | 0 to 29% | – | – | – | – | – | 0 to 29% | 0 to 29% | 0 to 29% | 0 to 29% | 0 to 29% | 0 to 29% | 0 to 29% | –
COC(=O)c1nc(-c2ccc3[nH]ccc3c2)c(F)cc1Cl [F189, Methyl 3-chloro-5-fluoro-6-(1H-indol-5-yl)picolinate] | 0 to 29% | 60 to 74% | 0 to 29% | 0 to 29% | 0 to 29% | 0 to 29% | 0 to 29% | 0 to 29% | – | – | – | – | – | 0 to 29% | 0 to 29% | 0 to 29% | 30 to 44% | 30 to 44% | 0 to 29% | 0 to 29% | –
